Source: patent US20120132797A1, “MEANS AND METHODS FOR DIAGNOSING THYROID DISORDERS” (BASF SE, priority 2009, published 2012)

Test system: Wistar (Crl:WI(Han)) rats
Experiment: Mass spectrometry-based plasma metabolite profiling of rats treated with known inducers of thyroid function impairment
Format: in vivo, rat
Settings: female rats, ratio of group medians vs controls; for 5-O-Methylsphingosine / Asparagine / Behenic acid (C22:0) / Citrate / Docosahexaenoic acid (C22:cis[4,7,10,13,16]6) / Glycine / Ketoleucine / Lysophosphatidylcholine (C18:2) / Phosphatidylcholine (C16:1, C18:2) / Phosphatidylcholine (C18:2, C20:4) / Pyruvate / Tricosanoic acid (C23:0) / erythro-Sphingosine / threo-Sphingosine: Table 1
From the text: At the beginning of the study the animals were 10-11 weeks old. Each dose group in the studies consisted of five rats per sex, and was compared with controls (10 rats per sex). […] The dose levels were chosen to show the typical overt (high dose) and slight (low dose) toxicological symptoms of the substances as described in the literature or in BASF internal study reports.
Blood samples were withdrawn from the retro-orbital sinus in all rats under isoflurane anesthesia on study days 7, 14 and 28 after a fasting period of 16-20 hours.
For mass spectrometry-based metabolite profiling analysis, plasma samples were extracted by a proprietary method which delivers a polar and a non-polar fraction. For GC-MS analysis, the non-polar fraction was treated with methanol under acidic conditions to yield the fatty acid methyl esters. Both fractions were further derivatised with Omethyl-hydroxyamine hydrochloride and pyridine to convert oxo groups to Omethyloximes and subsequently with a silylating agent before analysis.
In LC-MS/MS analysis, both fractions were reconstituted in appropriate solvent mixtures. HPLC was performed by gradient elution on reversed phase separation columns. For mass spectrometric detection metanomics proprietary technology was applied, which allows target and high sensitivity MRM (Multiple Reaction Monitoring) profiling in parallel to a full screen analysis. […] Moreover, several hundred additional analytes giving a fingerprint of the sample were included in the methods.
Following comprehensive analytical validation steps, the data for each analyte were normalized against data from pool samples. These samples were run in parallel through the whole process to account for process variability.
The sex- and day-stratified heteroscedastic t-test (“Welch test”) was applied to compare treated groups with respective controls. p-Values and ratios of corresponding group medians were collected as metabolic profiles and fed into a database.

With `N#Cc1ccc(CC(=NNC(=O)Nc2ccc(OC(F)(F)F)cc2)c2cccc(C(F)(F)F)c2)cc1` (mixture of isomers) [Metaflumizone] the 5-O-Methylsphingosine (fh7 (study day 7)) was 0.99, the Asparagine (fh7 (study day 7)) was 0.75 and the “Behenic acid (C22:0)” value (fh7 (study day 7)) was 1.12. For the same molecule, the Citrate (fh7 (study day 7)) was 0.84, the “Docosahexaenoic acid (C22:cis[4,7,10,13,16]6)” value (“Docosahexaenoic acid” below) (fh7 (study day 7)) was 1.52 and the Glycine (fh7 (study day 7)) was 0.93. For the same molecule, the Ketoleucine (fh7 (study day 7)) was 0.97, the “Lysophosphatidylcholine (C18:2)” value (fh7 (study day 7)) was 0.88 and the “Phosphatidylcholine (C16:1, C18:2)” value (fh7 (study day 7)) was 1.14. For the same molecule, the “Phosphatidylcholine (C18:2, C20:4)” value (fh7 (study day 7)) was 1.14, the Pyruvate (fh7 (study day 7)) was 0.64 and the “Tricosanoic acid (C23:0)” value (fh7 (study day 7)) was 1.28. The erythro-Sphingosine (fh7 (study day 7)) was 1.25, the threo-Sphingosine (fh7 (study day 7)) was 1.29 and the “Sphingomyelin (d18:1, C16:0)” value (fh7 (study day 7), Table 1, first listing) was 1.29. The “Sphingomyelin (d18:1, C16:0)” value (fh7 (study day 7), Table 1, second listing) was 0.97, the 5-O-Methylsphingosine (fh14 (study day 14)) was 1.42 and the Asparagine (fh14 (study day 14)) was 0.57. The “Behenic acid (C22:0)” value (fh14 (study day 14)) was 1.28, the Citrate (fh14 (study day 14)) was 0.62 and the “Docosahexaenoic acid” value (fh14 (study day 14)) was 2.54. The Glycine (fh14 (study day 14)) was 0.97, the Ketoleucine (fh14 (study day 14)) was 0.81 and the “Lysophosphatidylcholine (C18:2)” value (fh14 (study day 14)) was 1.20. For the same molecule, the “Phosphatidylcholine (C16:1, C18:2)” value (fh14 (study day 14)) was 1.40, the “Phosphatidylcholine (C18:2, C20:4)” value (fh14 (study day 14)) was 1.16 and the Pyruvate (fh14 (study day 14)) was 0.54. The “Tricosanoic acid (C23:0)” value (fh14 (study day 14)) was 1.41, the erythro-Sphingosine (fh14 (study day 14)) was 1.50 and the threo-Sphingosine (fh14 (study day 14)) was 1.27. The “Sphingomyelin (d18:1, C16:0)” value (fh14 (study day 14), Table 1, first listing) was 1.45, the “Sphingomyelin (d18:1, C16:0)” value (fh14 (study day 14), Table 1, second listing) was 1.10 and the 5-O-Methylsphingosine (fh28 (study day 28)) was 2.07. For the same molecule, the Asparagine (fh28 (study day 28)) was 1.17, the “Behenic acid (C22:0)” value (fh28 (study day 28)) was 2.03 and the Citrate (fh28 (study day 28)) was 0.88. For the same molecule, the “Docosahexaenoic acid” value (fh28 (study day 28)) was 1.98, the Glycine (fh28 (study day 28)) was 1.63 and the Ketoleucine (fh28 (study day 28)) was 0.81. The “Lysophosphatidylcholine (C18:2)” value (fh28 (study day 28)) was 1.11, the “Phosphatidylcholine (C16:1, C18:2)” value (fh28 (study day 28)) was 1.86 and the “Phosphatidylcholine (C18:2, C20:4)” value (fh28 (study day 28)) was 1.20. For the same molecule, the Pyruvate (fh28 (study day 28)) was 0.72, the “Tricosanoic acid (C23:0)” value (fh28 (study day 28)) was 2.56 and the erythro-Sphingosine (fh28 (study day 28)) was 1.82. The threo-Sphingosine (fh28 (study day 28)) was 1.89, the “Sphingomyelin (d18:1, C16:0)” value (fh28 (study day 28), Table 1, first listing) was 1.38 and the “Sphingomyelin (d18:1, C16:0)” value (fh28 (study day 28), Table 1, second listing) was 1.15.
